Earlier results on two sequences are cited in paper PMC7797166 (Journal of thoracic oncology : official publication of the …, 2020).

Read-outs that look alike come from different tables or passages of the source.

The subject of the data set is T cell. The settings on record: ref Li et al[31], cited from earlier work.

For the sequence HVKITDFGR, where the note is “HLA-A*31:01”, the tetramer assay entry is “positive”.
KITDFGRAK: the tetramer assay result (HLA-A*11:01) is “negative”.
